{"source": "patent US7470549B2", "about": "“Measurement method using biosensor” (FUJIFILM Corporation, priority 2004, dated 2008)", "key": {"Trypsin [1]": {"molecular_target": "T1, Trypsin (Bos taurus, UniProt P00760)", "T1 sequence (P00760 24-246)": "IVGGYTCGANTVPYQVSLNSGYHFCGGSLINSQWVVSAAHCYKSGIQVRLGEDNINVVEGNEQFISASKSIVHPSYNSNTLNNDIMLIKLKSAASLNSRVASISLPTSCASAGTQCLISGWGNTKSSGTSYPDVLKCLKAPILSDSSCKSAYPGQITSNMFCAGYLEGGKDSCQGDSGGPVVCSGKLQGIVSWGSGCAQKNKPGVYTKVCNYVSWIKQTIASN", "assay": "Enzyme activity of immobilized trypsin with Bz-Arg-MCA, fluorescence of decomposed product, same hydrogel chip (Examples 1-4)", "type": "biochemical", "conditions": "for Measurement results of fluorescence intensity (120 minutes): 0.002 mM substance, 0.1 mM Bz-Arg-MCA, excitation 380 nm, emission 460 nm, no substance: 580; for Inhibitory action on the enzyme activity of trypsin (in words): comment on Table 1", "procedure": "(§1) Using the chip after the measurement of the amount of leupeptin binding to trypsin described in (2) above, the enzyme activity of trypsin was measured. Specifically, a substrate specific to trypsin (benzoyl-L-arginine-4-methylcoumarin-7-amide (hereinafter referred to as Bz-Arg-MCA); Peptide Institute, Inc.) was allowed to react with trypsin, and fluorescence in the decomposed product was measured.\nThe HBS-N buffer contained in the measurement chip was removed, and a leupeptin solution (0.002 mM, HBS-N buffer) and 0.1 mM Bz-Arg-MCA were added thereto. The reaction was then carried out for 10, 30, 60, and 120 minutes.\nFluorescence measurement was carried out regarding the reaction for each of the aforementioned reaction times, using the BMGLabTechnologies FLUOstar measurement device (excitation: 380 nm; and emission: 460 nm).\n(§2) Specifically, a substrate specific to trypsin (benzoyl-L-arginine-4-methylcoumarin-7-amide (hereinafter referred to as Bz-Arg-MCA); Peptide Institute, Inc.) was allowed to react with trypsin, and fluorescence in the decomposed product was measured.\nThe reaction was then carried out for 10, 30, 60, and 120 minutes.\nFluorescence measurement was carried out regarding the reaction for each of the aforementioned reaction times, using the BMGLabTechnologies FLUstar measurement device (excitation: […]; and emission: 460 nm).\nas §1, with “chymostatin” for “leupeptin”, “trypsin” for “trypsin described”\nThe HBS-N buffer contained in the measurement chip was removed, and a chymostatin solution (0.002 mM, HBS-N buffer) and 0.1 mM Bz-Arg-MCA were added thereto. The reaction was then carried out for 10, 30, 60, and 120 minutes.\n(§3) Fluorescence measurement was carried out regarding the reaction for each of the aforementioned reaction times, using the BMGLabTechnologies FLUstar measurement device (excitation: 380 nm; and emission: 460 nm)."}, "Trypsin [2]": {"molecular_target": "T1, Trypsin", "assay": "SPR measurement of substance binding to trypsin immobilized on hydrogel-coated chip (Examples 1-4)", "conditions": "for Bond of substance interacting with trypsin (RU): 0.002 mM solution, left at rest 10 minutes, change of resonance signal, hydrogel-coated chip; for Binding to trypsin (in words): comment on Table 1", "procedure": "Trypsin (manufactured by Worthington) was immobilized on a measurement chip. Interaction measurement was carried out using a surface plasmon resonance measurement device.\n(§4) A mixed solution consisting of 1-ethyl-2,3-dimethylaminopropylcarbodiimide (400 mM) and N-hydroxysuccinimide (100 mM) was added to a hydrogel-coated chip, followed by leaving at rest for 20 minute. Thereafter, the resultant product was washed with an HBS-N buffer containing 10 mM CaCl2. Subsequently, trypsin (1 mg/ml, 10 mM CaCl2-containing HBS-N buffer) was added thereto, followed by leaving at rest for 30 minutes. Thereafter, the resultant product was washed with a 10 mM CaCl2-containing HBS-N buffer. The used HBS-N buffer is composed of 0.01 mol/l (pH 7.4) HEPES (N-2-hydroxyethylpiperazine-N′-2-ethanesulfonic acid) and 0.15 mol/l NaCl.\nThereafter, an ethanolamine/HCl solution (1M, pH 8.5) was added to the measurement chip, followed by washing with an HBS-N buffer (manufactured by Biacore), so as to block COOH groups that remained without reacting with trypsin.\n(§5) By the aforementioned operations, trypsin was immobilized on the surface of the measurement chip via a covalent bond. The amount by which resonance signals (RU value) obtained before the addition of trypsin and after washing it had changed was defined as the immobilized amount of trypsin (RU value).\n(§6) A measurement chip was washed with an HBS-N buffer. Thereafter, the measurement chip was equipped into a surface plasmon resonance measurement device, and a leupeptin solution (0.002 mM, HBS-N buffer) was added thereto, followed by leaving at rest for 10 minutes. The amount by which resonance signals (RU value) had changed was defined as the amount of leupeptin (manufactured by ICN) binding to trypsin.\nA measurement chip was washed with an HBS-N buffer.\nas §6, with “chymostatin” for “leupeptin”"}, "Trypsin [3]": {"molecular_target": "T1, Trypsin", "assay": "Selection of compounds by affinity: SPR binding to trypsin-immobilized PMMA/PEO sensor chip (Example 6)", "conditions": "for Binding amount (RU): left at rest 10 minutes, change of resonance signal, PMMA sensor chip", "procedure": "Using the SPR system used for screening shown in FIG. 1, immobilization of a ligand, the binding measurement of compounds, and selection of compounds were carried out.\nThereafter, it was placed in a spin coater (MODEL ASS-303; manufactured by ABLE) and then rotated at 1,000 rpm. 50 μl of a methyl ethyl ketone solution containing polymethyl methacrylate (2 mg/ml) was added dropwise to the center of the cover glass coated with gold via evaporation, and 2 minutes later, the rotation was terminated. The thickness of the membrane was measured by the ellipsometry method (In-Situ Ellipsometer MAUS-101; manufactured by Five Lab). […] This sample is called a PMMA surface chip. This PMMA surface chip was immersed in an NaOH aqueous solution (1 N) at 40° C. for 16 hours, followed by washing with water 3 times. This sample is called a PMMA/COOH surface chip. This PMMA/COOH surface chip was immersed in 2 ml of a mixed solution of 1-ethyl-2,3-dimethylaminopropylcarbodiimide (400 mM) and N-hydroxysuccinimide (100 mM) for 60 minutes. Thereafter, it was immersed in 2 ml of an α-amino-polyethyleneoxy-ω-carboxylic acid (mean molecular weight: 5,000) aqueous solution (10 mM) for 16 hours. The resultant product was finally washed with water 5 times. The thus obtained sensor chip was used in the following operation.\nas §4, with “solution” for “solution consisting”, “the sensor chip produced in (1) above,” for “a hydrogel-coated chip,”, “buffer.” for “buffer. The used HBS-N buffer is composed of 0.01 mol/l (pH 7.4) HEPES (N-2-hydroxyethylpiperazine-N′-2-ethanesulfonic acid) and 0.15 mol/l NaCl.”\nThereafter, an ethanolamine/HCl solution (1M, pH 8.5) was added to the measurement chip, followed by washing with an HBS-N buffer (manufactured by Biacore).\nThe sensor chip on which trypsin had been immobilized was washed with an HBS-N buffer."}, "Trypsin [4]": {"molecular_target": "T1, Trypsin", "assay": "Enzyme activity of trypsin on PMMA chip with Bz-Arg-MCA, fluorescence (Example 5)", "type": "biochemical", "conditions": "leupeptin 0.002 mM, 0.1 mM Bz-Arg-MCA", "procedure": "as §1, with “Using the PMMA chip after” for “Using the chip after”, “to trypsin in (2)” for “to trypsin described in (2)”\nThe inside of the PMMA measurement chip was washed with an HBS-N buffer. Thereafter, a leupeptin solution (0.002 mM, HBS-N buffer) and 0.1 mM Bz-Arg-MCA were added thereto. The reaction was then carried out for 10, 30, 60, and 120 minutes.\nas §3"}, "Trypsin [5]": {"molecular_target": "T1, Trypsin", "assay": "Selection of compounds due to biological activity: trypsin enzyme activity with Bz-Arg-MCA, fluorescence (Example 7)", "type": "biochemical", "procedure": "as §2\nThereafter, the reaction was then carried out for 10, 30, 60, and 120 minutes.\nas §3"}, "Trypsin [6]": {"molecular_target": "T1, Trypsin", "assay": "SPR binding to trypsin on PMMA measurement chip, Biacore 3000 (Example 5)", "conditions": "leupeptin 0.002 mM, 10 minutes", "procedure": "Trypsin (manufactured by Worthington) was immobilized on a PMMA measurement chip. Interaction measurement was carried out using a surface plasmon resonance measurement device (Biacore 3000).\nA PMMA measurement chip was equipped into Biacore 3000. A mixed solution of 1-ethyl-2,3-dimethylaminopropylcarbodiimide (400 mM) and N-hydroxysulfosuccinimide (100 mM) was added thereto, followed by reaction for 7 minutes. Thereafter, trypsin (0.05 mg/ml, 10 mM CaCl2-containing HBS-N buffer) was added thereto, followed by reaction for 7 minutes.\nThereafter, an ethanolamine/HCl solution (1M, pH 8.5) was added to the measurement chip, followed by reaction for 7 minutes, so as to block COOH groups that remained without reacting with trypsin.\nas §5, with “of the PMMA measurement chip” for “of the measurement chip”\nA leupeptin solution (0.002 mM, HBS-N buffer) was added to a measurement chip, followed by reaction for 10 minutes. The amount by which resonance signals (RU value) had changed was defined as the amount of leupeptin (manufactured by ICN) binding to trypsin."}}}
{"molecule": "CC(C)C[C@H](NC(=O)[C@@H](NC(=O)N[C@@H](Cc1ccccc1)C(=O)O)[C@@H]1CCN=C(N)N1)C(=O)N[C@H](C=O)Cc1ccccc1", "note": "[Chymostatin]", "values": [{"measurement": "Measurement results of fluorescence intensity (120 minutes)", "setting": "Trypsin [1]", "value": 576}, {"measurement": "Inhibitory action on the enzyme activity of trypsin (in words)", "setting": "Trypsin [1]", "value": "no inhibitory action on the enzyme activity of trypsin was observed"}, {"measurement": "Bond of substance interacting with trypsin (RU)", "setting": "Trypsin [2]", "value": 0, "unit": "RU"}, {"measurement": "Binding to trypsin (in words)", "setting": "Trypsin [2]", "value": "did not bind to trypsin"}, {"measurement": "Binding amount (RU)", "setting": "Trypsin [3]", "value": 0, "unit": "RU"}]}
{"molecule": "CC(=O)N[C@@H](CC(C)C)C(=O)N[C@@H](CC(C)C)C(=O)N[C@H](C=O)CCCNC(=N)N", "note": "[Leupeptin]", "values": [{"measurement": "Measurement results of fluorescence intensity (120 minutes)", "setting": "Trypsin [1]", "value": 2}, {"measurement": "Inhibitory action on the enzyme activity of trypsin (in words)", "setting": "Trypsin [1]", "value": "inhibiting the enzyme activity"}, {"measurement": "Fluorescence intensity, compared with CM5 cup", "setting": "Trypsin [4]", "value": "equivalent to the values obtained with CM5 cup"}, {"measurement": "Bond of substance interacting with trypsin (RU)", "setting": "Trypsin [2]", "value": 22, "unit": "RU"}, {"measurement": "Binding to trypsin (in words)", "setting": "Trypsin [2]", "value": "bound to the enzyme activity site of trypsin"}, {"measurement": "Measurement value of fluorescence intensity", "setting": "Trypsin [5]; 4 μM compound solution mixed 1:1 with 0.2 mM Bz-Arg-MCA, reaction time of the value not given, no compound: 594", "value": 3}, {"measurement": "Inhibition of the enzyme activity of trypsin, selection of compounds (in words)", "setting": "Trypsin [5]; Example 7 (3)", "value": "inhibited the enzyme activity of trypsin"}, {"measurement": "Selection due to enzyme activity", "setting": "Trypsin [5]; symbols ◯ / X, key not given", "value": "◯"}, {"measurement": "Binding amount of substance interacting with trypsin, compared with CM5 cup", "setting": "Trypsin [6]", "value": "equivalent to the values obtained with CM5 cup"}, {"measurement": "Binding observed, selection of compounds (in words)", "setting": "Trypsin [3]; Example 6 (3)", "value": "the binding of which were observed, were selected"}, {"measurement": "Binding amount (RU)", "setting": "Trypsin [3]", "value": 23, "unit": "RU"}, {"measurement": "Selection due to binding amount", "setting": "Trypsin [3]; symbols ◯ / X, key not given", "value": "◯"}]}
